The values below come from patent publication US10801035B2, “Plants having increased tolerance to herbicides” (BASF SE, priority 2011, dated 2020).

In general, Ki refers to a dissociation constant, usually derived from enzyme kinetics or from competition with a known ligand.

What all share (format): biochemical
Assay [1] addresses T1, Arabidopsis HPPD variant M335H, P336A, E363Q (Arabidopsis thaliana, UniProt P93836, E363Q/M335H/P336A).
T1 construct: His6 (N); made in house; host or cells: E. coli BL21 (DE3)
Nature of the assay: HPPD activity assay, Arabidopsis HPPD mutant M335H, P336A, E363Q. To be noted: normalized on wildtype. The protocol:
(§1) HPPD produces homogentisic acid and CO2 from 4-hydroxyphenylpyruvate (4-HPP) and O2. The activity assay for HPPD is based on the analysis of homogentisic acid by reversed phase HPLC.
(§2) The assay mixture can contain 150 mM potassium phosphate buffer pH 7.0, 50 mM L-ascorbic acid, 1 μM FeSO4 and 7 μg of purified enzyme in a total volume of 1 ml. Inhibitors are dissolved in DMSO (dimethylsulfoxide) to a concentration of 20 mM or 0.5 mM, respectively. From this stock solution serial five-fold dilutions are prepared in DMSO, which are used in the assay. The respective inhibitor solution accounts for 1% of the assay volume. Thus, final inhibitor concentrations range from 200 μM to 2.5 nM or from 5 μM to 63 pM, respectively. After a preincubation of 30 min the reaction is started by adding 4-HPP to a final concentration of 0.1 mM. […]
(§3) Inhibitors are dissolved in DMSO (dimethylsulfoxide) to a concentration of 0.5 mM. […] IC50 values are calculated using non-linear regression.
(§4) Purified, mutant HPPD enzymes are obtained by the methods described above. […] Apparent michaelis constants (Km) and maximal reaction velocities (Vmax) are calculated by non-linear regression with the software GraphPad Prism 5 (GraphPad Software, La Jolla, USA) using a substrate inhibition model. […] Weighted means (by standard error) of Km and […] values are calculated from at least three independent experiments. […]

Assay [2] deals with T2, Hordeum HPPD variant L320N (Hordeum vulgare, UniProt O48604, A164G/L320N/R146V/R147D/R148G).
T2 construct: His6; made in house; host or cells: E. coli BL21 (DE3)
T2 sequence (O48604 whole entry R146V/R147D/R148G/A164G/L320N): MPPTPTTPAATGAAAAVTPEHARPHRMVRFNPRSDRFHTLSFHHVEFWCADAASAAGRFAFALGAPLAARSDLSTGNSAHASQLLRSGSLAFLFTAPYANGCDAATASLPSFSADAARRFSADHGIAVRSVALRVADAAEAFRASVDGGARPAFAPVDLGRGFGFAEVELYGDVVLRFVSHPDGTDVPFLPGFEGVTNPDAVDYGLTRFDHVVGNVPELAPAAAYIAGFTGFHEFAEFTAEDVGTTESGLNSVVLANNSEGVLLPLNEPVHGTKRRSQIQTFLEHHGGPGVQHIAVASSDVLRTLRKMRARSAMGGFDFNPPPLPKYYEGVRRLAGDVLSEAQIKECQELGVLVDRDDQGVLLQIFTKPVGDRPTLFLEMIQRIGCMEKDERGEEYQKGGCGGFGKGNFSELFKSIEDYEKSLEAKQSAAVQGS
Kind of assay: HPPD activity assay, Hordeum HPPD mutant L320N. The conditions noted are these: normalized on wildtype. The protocol: as §1, §2, §3, §4

The next assay deals with Blepharisma HPPD. Kind of assay: HPPD activity assay, Blepharisma HPPD. To be noted: normalized on Hordeum HPPD. The protocol:
as §1
(§5) The assay mixture can contain 150 mM potassium phosphate buffer pH 7.0, 50 mM L-ascorbic acid, 1 μM FeSO4 and 7 μg of purified enzyme in a total volume of 1 ml. Inhibitors are dissolved in DMSO (dimethylsulfoxide) to a concentration of 20 mM or 0.5 mM, respectively. From this stock solution serial five-fold dilutions are prepared in DMSO, which are used in the assay. The respective inhibitor solution accounts for 1% of the assay volume. […]
(§6) Activities are normalized by setting the uninhibited enzyme activity to 100%. […] values are calculated using non-linear regression. […]
as §3
(§7) Using methods which are described in the above examples or well known in the art, purified, recombinant wildtype HPPD enzymes are characterized with respect to their kinetic properties and sensitivity towards HPPD inhibiting herbicides. Apparent michaelis constants (Km) and maximal reaction velocities (Vmax) are calculated by non-linear regression with the software GraphPad Prism 5 (GraphPad Software, La Jolla, USA) using a substrate inhibition model. […]

In assay [3] the target is T3, Hordeum HPPD variant L320H, P321A (Hordeum vulgare, UniProt O48604, L320H/P321A).
T3 construct: His6; made in house; host or cells: E. coli BL21 (DE3)
T3 sequence (O48604 whole entry R146V/R147D/R148G/A164G/L320H/P321A): as the sequence (O48604 whole entry R146V/R147D/R148G/A164G/L320N) above, with N320H, P321A counted along it
Nature of the assay: HPPD activity assay, Hordeum HPPD mutant L320H, P321A. To be noted: normalized on wildtype. The protocol:
as §1, §2, §3, §4

Another assay has as its system Rhodococcus HPPD2. Kind of assay: HPPD activity assay, Rhodococcus HPPD2. To be noted: normalized on Hordeum HPPD. The protocol:
as §1, §5, §6, §3, §7

The target in assay [4] is T4, Hordeum HPPD (SEQ ID: 1/2) (Hordeum vulgare, UniProt O48604, A164G/R146V/R147D/R148G).
T4 construct: His6; made in house; host or cells: E. coli BL21 (DE3)
T4 sequence (O48604 whole entry R146V/R147D/R148G/A164G): as the sequence (O48604 whole entry R146V/R147D/R148G/A164G/L320N) above, with N320L counted along it
Kind of assay: HPPD activity assay, wildtype Hordeum HPPD. To be noted: for Ki: Cheng-Prusoff from IC50, read-out: Ki (dissociation constant); for TI (tolerance index): not normalized. The protocol:
as §1
The assay mixture can contain 150 mM potassium phosphate buffer pH 7.0, 50 mM L-ascorbic acid, 1 μM FeSO4 and 7 μg of purified enzyme in a total volume of 1 ml. Inhibitors are dissolved in DMSO (dimethylsulfoxide) to a concentration of 20 mM or 0.5 mM, respectively. From this stock solution serial five-fold dilutions are prepared in DMSO, which are used in the assay. The respective inhibitor solution accounts for 1% of the assay volume. Thus, final inhibitor concentrations range from 200 μM to 2.5 nM or from 5 μM to 63 pM, respectively. After a preincubation of 30 min the reaction is started by adding 4-HPP to a final concentration of 0.1 mM. The reaction is allowed to proceed for 120 min at room temperature. The reaction is stopped by addition of 100 μl of 4.5 M phosphoric acid.
Activities are normalized by setting the uninhibited enzyme activity to 100%. […] values are calculated using non-linear regression.
The assay mixture can contain 150 mM potassium phosphate buffer pH 7.0, 50 mM L-ascorbic acid, 100 μM Catalase (Sigma-Aldrich), 1 μM FeSO4 and 0.2 units of purified HPPD enzyme in a total volume of 505 μl. 1 unit is defined as the amount of enzyme that is required to produce 1 nmol of HGA per minute at 20° C.
Inhibitors are dissolved in DMSO (dimethylsulfoxide) to a concentration of 0.5 mM. From this stock solution serial five-fold dilutions are prepared in DMSO, which are used in the assay. The respective inhibitor solution accounts for 1% of the assay volume. Thus, final inhibitor concentrations range from 5 μM to 320 pM, respectively. Activities are normalized by setting the uninhibited enzyme activity to 100%. IC50 values are calculated using non-linear regression.
Using methods which are described in the above examples or well known in the art, purified, recombinant wildtype HPPD enzymes are characterized with respect to their kinetic properties and sensitivity towards HPPD inhibiting herbicides. Apparent michaelis constants (Km) and maximal reaction velocities (Vmax) are calculated by non-linear regression with the software GraphPad Prism 5 (GraphPad Software, La Jolla, USA) using a substrate inhibition model. Apparent kcat values are calculated from Vmax assuming 100% purity of the enzyme preparation. Weighted means (by standard error) of Km and […] values are calculated from at least three independent experiments. The Cheng-Prusoff equation for competitive inhibition (Cheng, Y. C.; Prusoff, W. H. Biochem Pharmacol 1973, 22, 3099-3108) is used to calculate dissociation constants (Ki).
Field performance of the HPPD enzyme, which is used as a herbicide tolerance trait may depend not only on its lack of sensitivity towards HPPD inhibiting herbicides but also on its activity. To assess the potential performance of a herbicide tolerance trait a tolerance index (TI) is calculated using the following formula: […]
Easy comparison and ranking of each trait is enabled by normalizing every tolerance index on Hordeum HPPD.

Setting [5] is: Hordeum HPPD Wild-type, normalized on wildtype (Table 10).
[6] abbreviates: Hordeum HPPD, normalized on Hordeum HPPD (Table 7).

T1 sequence (P93836 whole entry M335H/P336A/E363Q): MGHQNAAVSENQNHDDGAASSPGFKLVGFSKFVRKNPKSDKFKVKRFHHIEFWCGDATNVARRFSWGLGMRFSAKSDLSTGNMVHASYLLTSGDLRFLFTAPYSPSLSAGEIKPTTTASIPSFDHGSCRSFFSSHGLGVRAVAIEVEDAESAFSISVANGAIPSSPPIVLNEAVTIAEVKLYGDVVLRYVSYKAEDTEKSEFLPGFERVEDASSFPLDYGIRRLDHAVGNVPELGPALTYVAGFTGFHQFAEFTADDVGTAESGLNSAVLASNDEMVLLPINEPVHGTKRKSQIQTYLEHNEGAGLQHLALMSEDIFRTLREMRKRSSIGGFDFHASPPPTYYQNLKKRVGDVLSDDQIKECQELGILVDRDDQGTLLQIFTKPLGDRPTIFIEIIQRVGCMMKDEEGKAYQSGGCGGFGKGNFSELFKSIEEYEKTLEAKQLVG

Consider `O=S1(=O)C(c2c(Cl)cc(Cl)nc2Cl)=C(O)c2ncccc2N1CC(F)F` [Inhibitor 2, 1-(2,2-difluoroethyl)-2,2-dioxo-3-(2,4,6-trichloro-3-pyridyl)pyrido[3,2-c]thiazin-4-ol], for which the “Normalized tolerance index (TI)” value in assay [1] stood at 1.2; in assay [2] it was 1.7; in the assay with Blepharisma HPPD, 4.9; in assay [3], 3.7; in the assay on Rhodococcus HPPD2, 20.5; in assay [4] (setting [5]) it was 1. In assay [4] (setting [6]), the “Normalized tolerance index (TI)” value was found to be 1. The Ki in assay [4] (Hordeum HPPD) came to 2.6 nM. Also, the “TI (tolerance index)” value in assay [4] (Hordeum HPPD) is 1.13E−3.
Consider `CC1=NOC(c2c(Cl)ccc(C3=C(O)c4ncccc4N(CC(F)F)S3(=O)=O)c2Cl)C1` (stereo not drawn) [Inhibitor 1, 3-[2,4-dichloro-3-(3-methyl-4,5-dihydroisoxazol-5-yl)phenyl]-1-(2,2-difluoroethyl)-2,2-dioxo-pyrido[3,2-c]thiazin-4-ol], for which the “Normalized tolerance index (TI)” value was found to be 3 in assay [1]; 3.3 in assay [2]; 6.3 in the assay on Blepharisma HPPD; 6.5 in assay [3]; 73.9 in the assay on Rhodococcus HPPD2; 1 in assay [4] (setting [5]). The “Normalized tolerance index (TI)” value in assay [4] (setting [6]) turned out to be 1. Moreover, the Ki in assay [4] (Hordeum HPPD) came out at 2.7 nM. For the same compound, the “TI (tolerance index)” value in assay [4] (Hordeum HPPD) turned out to be 1.19E−3.
